# Measurements: US7393977B2, “Dicarboxylic acid salt of sibutramine” (CJ Cheiljedang Corporation, priority 2005, dated 2008)
# Counter-ions that a name gives are not always drawn.
# Columns and labels:
# mouse = conditions: cited from earlier work
# rat = conditions: cited from earlier work
# [1] = Stability to heat (storage at 60° C., residual proportion by HPLC); assay type: physicochemical; conditions: for residual proportion of the initial level of active ingredient: 60° C.; for heat stability (in words): compared with sibutramine hydrochloride monohydrate
# Protocol: (§1) The stability of an active ingredient used in a pharmaceutical composition to heat and light is a very important physical property during formulation into tablets and capsules and long-term storage. […] In detail, each compound was stored at 60° C. After 1, 2 and 4 weeks, the residual proportion of the initial level of an active ingredient was measured by high performance liquid chromatography (HPLC). Also, fluorescent light was radiated at 25° C. using a light stability test chamber suitable for the ICH guideline, and after 1, 2 and 4 weeks, the residual proportion of the initial level of an active ingredient was measured by HPLC.
# [2] = Non-hygroscopicity evaluation (water content by Karl-Fisher titrator after exposure to humid air); assay type: physicochemical; conditions: for moisture absorption (in words): humid atmosphere of 95% relative humidity
# Protocol: Then, the water content of the samples was measured using a Karl-Fisher titrator. In Table 4, the water content of an active ingredient is expressed as a percentage of water content by weight (weight %).
# [3] = Stability to light (fluorescent light at 25° C., ICH light stability chamber, residual proportion by HPLC); assay type: physicochemical; conditions: for residual proportion of the initial level of active ingredient: fluorescent light, 25° C.; for photostability (in words): compared with sibutramine hydrochloride monohydrate
# Protocol: as §1
# [4] = Solubility evaluation in distilled water and at several pH values; conditions: 37 °C, thermodynamic from solid
# [5] = 75% relative humidity at 25° C., 3 days
# [6] = 95% relative humidity at 25° C., 1 week
SMILES,residual proportion of the initial level of active ingredient ([1]; 1 week),residual proportion of the initial level of active ingredient ([1]; 2 weeks),residual proportion of the initial level of active ingredient ([1]; 4 weeks),residual proportion of the initial level of active ingredient ([1]; Initial),residual proportion of the initial level of active ingredient ([3]; 1 week),residual proportion of the initial level of active ingredient ([3]; 2 weeks),residual proportion of the initial level of active ingredient ([3]; Initial),heat stability (in words) [1],"water content (weight %) [2, 5] [%]","water content (weight %) [2, 6] [%]",water content (weight %) ([2]; Initial) [%],moisture absorption (in words) [2],photostability (in words) [3],residual proportion of the initial level of active ingredient ([3]; 4 weeks),other results
"Cl [HCl, hydrochloric acid]",,,,,,,,,,,,,,,LD50 in mouse (i.p.) (mouse): 40 mg/kg; LD50 in rat (oral) (rat): 900 mg/kg
"CC(C)CC(N(C)C)C1(c2ccc(Cl)cc2)CCC1 (centres unmarked) [Sibutramine HCl monohydrate, Sibutramine hydrochloride monohydrate, reference compound]",1.000,0.999,0.999,1.000,1.000,0.999,1.000,,,,,,,,"water content (weight %) ([2]; 75% relative humidity at 25° C., 3 days, hydrochloride monohydrate): 5.49%; water content (weight %) ([2]; 95% relative humidity at 25° C., 1 week, hydrochloride monohydrate): 5.5%; water content (weight %) ([2]; Initial, hydrochloride monohydrate): 5.49%; residual proportion of the initial level of active ingredient ([3]; 4 weeks, hydrochloride monohydrate): 0.998; solubility ([4]; pH 1.2, simulated gastric fluid): 13.4 mg/mL; solubility ([4]; pH 4, aqueous buffer): 9.58 mg/mL; solubility ([4]; pH 5.3, aqueous buffer): 6.58 mg/mL; solubility ([4]; pH 6.8, aqueous buffer): 23.1 mg/mL; solubility ([4]; pH 7.4, aqueous buffer): 9.2 mg/mL; solubility ([4]; distilled water, water): 26.2 mg/mL"
"CC(C)CC(N(C)C)C1(c2ccc(Cl)cc2)CCC1 (centres unmarked) [Sibutramine malonate, sibutramine malonate]",1.000,0.999,0.999,1.000,1.000,0.999,1.000,equal to those of sibutramine hydrochloride monohydrate,0.02,0.03,0.03,did not absorb moisture,equal to those of sibutramine hydrochloride monohydrate,0.999,
"CC(C)CC(N(C)C)C1(c2ccc(Cl)cc2)CCC1 (centres unmarked) [Sibutramine oxalate, sibutramine oxalate]",1.000,0.999,0.999,1.000,1.000,0.999,1.000,equal to those of sibutramine hydrochloride monohydrate,0.03,0.02,0.02,did not absorb moisture,equal to those of sibutramine hydrochloride monohydrate,0.999,
